Measurements reported in US6680295B1, “Method and pharmaceutical composition for prevention and treatment of brain damage” (priority 1994, dated 2004).
No end group written: not given here.

Experiments:
[1] = rat, in vivo
Description: FIG. 15 is a graph showing ^125I -PACAP 38 levels in brain tissue 10 minutes after icv injection, at 1×10^6 cpm ^125I-PACAP38.
This calculation was based on the transport of ^125I-labelled peptide given icv as a bolus but slow injection over 5 min. 1×10^6 cpm ^125I-PACAP38 was injected icv in anesthetized rats, the cpm in the brain tissues 10 min after the injection is shown in FIG. 15.
The labelled peptide was injected into the right lateral ventricle.

[2] = target: T1, PACAP binding sites in rat brain membrane preparations (Rattus norvegicus, UniProt P32215); experiment: Radioreceptor assay: displacement of 125I-PACAP27 binding to E18 rat brain membranes; conditions: for displacement of 125I-PACAP27 binding: unlabeled peptide
T1 construct: from tissue; host or cells: rat brain membrane preparations (E18 whole brain; other ages and regions also dissected)
T1 sequence (P32215 20-523): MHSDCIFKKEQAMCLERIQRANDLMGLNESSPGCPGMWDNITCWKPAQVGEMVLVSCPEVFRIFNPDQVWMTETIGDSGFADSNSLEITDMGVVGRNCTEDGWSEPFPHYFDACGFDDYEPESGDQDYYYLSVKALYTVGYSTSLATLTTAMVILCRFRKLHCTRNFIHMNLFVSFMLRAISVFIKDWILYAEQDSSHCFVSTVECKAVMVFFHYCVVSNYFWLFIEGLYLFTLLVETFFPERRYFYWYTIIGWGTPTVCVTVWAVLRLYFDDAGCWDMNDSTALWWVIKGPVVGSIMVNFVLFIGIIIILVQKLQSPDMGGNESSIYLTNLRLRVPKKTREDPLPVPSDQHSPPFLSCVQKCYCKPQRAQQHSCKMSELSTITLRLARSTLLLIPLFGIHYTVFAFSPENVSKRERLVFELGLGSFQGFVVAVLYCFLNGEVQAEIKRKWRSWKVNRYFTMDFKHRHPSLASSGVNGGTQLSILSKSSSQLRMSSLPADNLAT
Text: Male CD rats (Charles River Breeding Labs., Wilmington, Mass.) were used throughout this example. The following regions of the brain were dissected at the indicated ages: embryonic day E14 (whole brain); E18 (whole brain, neocortex, hippocampus, and diencephalon); postnatal days P0, P7 and P14 (whole brain, neocortex, hippocampus, diencephalon, and cerebellum); and 1-, 2- and 3-months old (MO) (whole brain, neocortex, hippocampus, diencephalon, and cerebellum). After dissection, each region was immediately frozen on dry-ice and stored at −70 C. for up to 2 months until the receptor and peptide levels were determined. […] Arimura, et al., Endocrinology 129: 2787-2789 (1991). […] Gottschall, et al., Endocrinology 127: 272-277 (1990), and Gottschall, et al., FASEB J 5: 194-199 (1991).
Gottschall, et al., Endocrinology 127: 272-277 (1990) and Gottschall, et al., FASEB J 5: 194-199.

[3] = tested on: dissociated hippocampal cultures; experiment: Prevention of gp120-induced neuronal cell death in dissociated hippocampal cultures; format: cell-based, mice; conditions: 1 pM gp120, five days
Description: The cultures were prepared from 16-17 day-old mice embryos (C57B1/6) as previously described. Brenneman, et al., Nature 335: 639-642 (1988). Before treatment, the cultures were given a complete change of medium. […] Cell counts were conducted on 60 fields, 0.12 mm^2 each. Neurons were identified immunocytochemically using antiserum against neuron specific enolase. Schmechel, et al., Nature 276: 834-836 (1978). Each value is the mean of 3-5 dishes.
Brenneman, et al. Nature 335: 639-642 (1988). […] Brenneman, et al. Nature 335: 639-642 (1988). […] Arimura, et al., Trends Endocr. Metab. 3: 288-294 (1993). Arimura et al., Ann NY Acad. Sci. 739:228-243 (1994).

hippocampal CA1 neurons [4] = experiment: Forebrain ischemia, hippocampal CA1 neuronal cell death, iv infusion started immediately after ischemia; format: in vivo, rat
Description: (§1) The clips were removed 15 minutes later. […] The incision wound was closed.
PACAP38 was administered i.v. to rats (see example 5) over one week, starting immediately after ischemia/reperfusion. […] In this experiment, 20 μg/kg (approximately 4 nmol/kg) was given as a bolus iv injection before the infusion began.

[5] = tested on: motoneurons in the lateral motor column (LMC); experiment: Survival of motoneurons in lumbar lateral motor column of chick embryo
Description: Embryos received vehicle, or 5 nM or 25 nM PACAP (concentrations in the egg after injection) daily from E6 to E9. Average LMC is represented by 320-340 sections and cell counts were made on every tenth section. Sum of live cells in all counted sections multiplied by 10 is shown in this figure. Numbers indicate mean numbers of live cells in 6 LMC in each group. Bars indicate SME.
Effect of PACAP on natural neuronal cell death was also examined in chick embryos using similar experimental procedures described by Hamburger and Montalcini. […] Fertilized White Leghorn eggs (Troslow Farms) were incubated at 39 C. at 99% humidity. A small hole was opened at the top of the egg on E3 ½ (Stage 23) by punching with micro-dissecting tweezers. […]
In the lumbar motor column (LMC), intact motoneurons were easily distinguishable from surrounding cells due to their large size and deeply stained perikaryon. Only those neurons with an intact nuclear membrane and at least one visible nucleolus were counted as live cells. Every tenth section of the LMC was counted, and the sum of the sections multiplied by ten to obtain a data point. A total of 6 motor columns was counted in each of the control and experimental groups.

hippocampal CA1 neurons [6] = experiment: Forebrain ischemia, hippocampal CA1 neuronal cell death, iv infusion started 24 hrs after ischemia; format: in vivo, rat; conditions: bolus and infusion started 24 hrs after ischemia
Description: FIG. 18 is a graph showing the cytoprotective effect of iv infusion of PACAP38 which started 24 hrs. after ischemia in rats.
as §1
Neuronal cell death in CA1 induced by forebrain ischemia progresses slowly. One day after ischemia/reperfusion many viable neurons were still seen in CA1. However, nearly all neurons died one week after ischemia. Therefore, if the administration of PACAP38 is started 24 hrs after ischemia, the treatment could possibly still prevent the slow death of the neurons. To test this hypothesis, a bolus iv injection and subsequent iv infusion of PACAP38 was started 24 hrs after ischemia.

hippocampal CA1 neurons [7] = experiment: Forebrain ischemia/reperfusion (four vessel occlusion), hippocampal CA1 neuronal cell death, icv administration
Description: Each column indicates viable cell number 7 days after 15 min ischemia of the forebrain of rats which were intracerebroventricularly administered the vehicle alone or the vehicle containing varying amounts of PACAP38. The numbers of cells are expressed by percentages of live cells as compared with the cells in the same area of the intact rat hippocampus. […] FIGS. 13A-F are microphotographs of coronal sections of the right hippocampal CA1 from intact rats and rats subjected to forebrain ischemia for 15 min. The sections were stained with cresyl violet (A, B, C) and immunostained for MAPII (D, E, F). A, D: Intact rats. B, E: 7 days after ischemia in vehicle-infused (icv) rats. […] PACAP38 administration started immediately after ischemia.
Adult male rats of CD strain weighing 270-300 g body weight (Charles River Breeding labs, Wilmington, Miss.) were used. Under Ketamine anesthesia, the bilateral vertebrate arteries were permanently occluded at the first cervical vertebra by electrocoagulation. Bilateral carotid arteries were exposed and a loop of silicon rubber tubing was placed around each carotid artery, leaving the end of the tubing outside the suture. The animal was left in the laboratory with water, but without food. The following morning, both loops around the carotid arteries were pulled and artery clips were applied on the loops at the portion close to the skin so that both carotid arteries were occluded and ischemia of the brain occurred as long as the clips remained. The clips were removed 15 minutes later. During ischemia, body temperature was monitored by thermometer placed in the rectum and the body temperature was maintained at 37° C. by radiation heat from light bulb. […] Reperfusion of bilateral carotid arteries was assured by direct visual examination. The incision wound was closed.
Soon after the reperfusion of the carotid arteries began, the animal was placed on a stereotaxic instrument, the skull was exposed, and a small hole was made by a dental drill at anterior 0.6 lateral 1.5, vertical 5.0 mm from the bregma and skull surface, and guided cannula (Alza Corp., Palo Alto, Calif.) was inserted into the hole so that the tip of the cannula is in the lateral cerebroventricle and fixed on the skull by dental cement. The incised skin was then closed by suture. Then 10 μl of artificial cerebrospinal fluid (CSF) containing 0.1% bovine serum albumin (ESA) or the vehicle containing varying amounts of PACAP38 was introduced.
PACAP38 was icv infused into the right lateral cerebroventricle of rats having neuronal cell damage in the CA1 of the hippocampus as discussed in example 5. The effect of the icv infusion of PACAP38 on ischemia-induced neuronal cell death in the hippocampal CA1 in rats was measured.

[8] = tested on: dorsomedial population of dorsal root ganglia (DRG18); experiment: Natural neuronal cell death in dorsal root ganglion DRG18 of chick embryo; conditions: 25 nM in the egg daily E3 1/2 to E8 1/2, counted on E9, p<0.01
Description: The control group received vehicle and the experimental group received PACAP38 (25 nM in the egg) daily from E3 ½ to E8 ½. Number is the mean of the numbers of degenerating cells in 6 ganglia in each group. Bar indicates SEM.
Effect of PACAP on natural neuronal cell death was also examined in chick embryos using similar experimental procedures described by Hamburger and Montalcini. […] Fertilized White Leghorn eggs (Troslow Farms) were incubated at 39 C. at 99% humidity. A small hole was opened at the top of the egg on E3 ½ (Stage 23) by punching with micro-dissecting tweezers. One μl/g of egg weight of sterile Tyrode solution or solution containing 5 μM or 25 μM PACAP38 was administered daily through the hole onto the highly vascularized chorioallantoic membrane from day E3 ½ through E8 ½ in the experiment for dorsal root ganglion (DRG), and from E6 through E9 for lumbar motor column (LMC). […]
The magnification used (×400), one can observe DRG18 divided into two populations of cells: large differentiating ventrolateral (VL) and small, late differentiating dorsomedial (DM) cells. […] Macrophages containing debris of several cells were encountered rarely and counted as two degenerating cells. Every second section of the ganglia was counted, and the sum multiplied by two to obtain a data point. A total of 6 ganglia were counted in each of the control and experimental groups, respectively.

[9] = tested on: cultured rat neurons, intracellular cAMP; experiment: cAMP response in cultured rat neurons (RIA); format: cell-based; conditions: neuron cultures
Description: Neuron cultures were prepared from brains of 1 day-old rats. 1×10^7 cells were plated in each dish (35 mm diameter).
(§2) Yada, et al., J. Biol. Chem. 269: 1290-1293 (1994).

Type I PACAP receptor = target: T2, Type I PACAP receptor (Homo sapiens, UniProt P41586); conditions: cited from earlier work
T2 sequence (P41586 21-468): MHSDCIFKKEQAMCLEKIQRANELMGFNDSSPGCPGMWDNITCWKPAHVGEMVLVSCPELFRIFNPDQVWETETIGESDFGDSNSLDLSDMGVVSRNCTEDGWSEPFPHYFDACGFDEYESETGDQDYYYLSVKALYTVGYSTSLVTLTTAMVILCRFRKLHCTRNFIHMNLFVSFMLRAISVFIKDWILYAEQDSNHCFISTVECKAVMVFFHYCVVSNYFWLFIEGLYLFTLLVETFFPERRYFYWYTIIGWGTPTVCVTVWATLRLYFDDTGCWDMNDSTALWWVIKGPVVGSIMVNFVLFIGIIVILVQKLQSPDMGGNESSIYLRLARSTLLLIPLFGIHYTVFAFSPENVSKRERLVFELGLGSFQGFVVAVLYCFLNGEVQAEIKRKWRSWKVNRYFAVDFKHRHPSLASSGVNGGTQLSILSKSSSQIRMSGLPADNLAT

[10] = tested on: dissociated hippocampal cultures; conditions: cited from earlier work
[11] = tested on: cultured rat astrocytes, intracellular cAMP; experiment: cAMP response in cultured rat astrocytes (RIA); format: cell-based; conditions: astrocyte cultures
Description: Astrocytes cultures were prepared from brain of neonatal rats. Astrocytes were allowed to proliferate for 7-10 days before experiments.
as §2

CNS cultures, cAMP = experiment: cAMP in CNS cultures at the peptide concentrations that increase neuronal survival; format: cell-based; conditions: 0.1 nM, any CNS culture system
[12] = target: T3, PACAP receptor (PACAP binding sites) in rat brain membrane preparations (rat, UniProt P32215 20-523); experiment: Scatchard analysis of displacement of 125I-PACAP27, E18 rat brain membranes; reference PACAP27
T3 construct: whole, on cells; Native receptor in crude brain membranes, not a recombinant protein; also called the receptor
T3 sequence (looked up): T1 sequence (P32215 20-523)

## ^125I-PACAP38
[1]
  CPM in right hippocampus relative to left: four times greater
  radioactivity in left hippocampus: 5 cpm per mg tissue
  radioactivity in right hippocampus: 20 cpm per mg tissue

## secretin: structurally related peptide used in binding competition
[2]
  displacement of 125I-PACAP27 binding: did not displace

## GHRH: structurally related peptide used in binding competition
[2]
  displacement of 125I-PACAP27 binding: did not displace

## glucagon: structurally related peptide used in binding competition
[2]
  displacement of 125I-PACAP27 binding: did not displace

## PACAP[1-38]-NH2 [PACAP38]
[3]
  lower peak of bimodal dose-response curve of cytoprotection: 0.1 pM
  upper peak of bimodal dose-response curve of cytoprotection: 0.1 nM
Hippocampal CA1 neurons [4]; iv 16 pmol/hr over one week after 20 μg/kg iv bolus
  effect on ischemia-induced neuronal cell death in CA1: attenuated neuronal cell death significantly
Hippocampal CA1 neurons [4]; iv 160 pmol/hr over one week after 20 μg/kg iv bolus
  effect on ischemia-induced neuronal cell death in CA1: attenuated neuronal cell death significantly
[5]; 5 nM in the egg daily E6 to E9, counted on E10
  increase in number of motoneurons per motor column: 7.2%
[5]; 25 nM in the egg daily E6 to E9, counted on E10
  increase in number of motoneurons per motor column: 12.5%
Hippocampal CA1 neurons [6]; iv 16 pmol/hr
  effect on ischemia-induced neuronal cell death in CA1: significantly (<0.01) attenuated brain cell death
Hippocampal CA1 neurons [6]; iv 160 pmol/hr
  effect on ischemia-induced neuronal cell death in CA1: significantly (<0.01) attenuated brain cell death
Hippocampal CA1 neurons [7]; after bolus 450 ng/10 μl H2O over 10 min, infusion over seven days, FIG. 12
  most effective continuous icv infusion rate: 45 ng/µL/h
Hippocampal CA1 neurons [7]; icv infusion into right lateral cerebroventricle over one week, FIG. 16
  icv dose of maximum cytoprotective effect (bell-shaped dose-response): 1 pmol/h
Hippocampal CA1 neurons [7]; icv infusion over one week, viable neurons 7 days after ischemia
  effect on ischemia-induced neuronal cell death in CA1: significantly prevented the neuronal cell death
Hippocampal CA1 neurons [7]; icv osmotic pump 1 pmol/h over one week, started immediately after ischemia, 7 days
  effect on ischemia-induced cell death in CA1 (histology): prevented ischemia-induced cell death in CA1
Hippocampal CA1 neurons [7]; icv over 7 days, 10, 1, 0.1 and 0.01 pmol/h tested, FIG. 14
  most effective icv dose: 1 pmol/h
[2]
  affinity for the receptor relative to PACAP27 (higher): about 10 fold
  displacement of 125I-PACAP27 binding: more effectively than did PACAP27
[8]
  number of degenerating cells less than in untreated embryos: 37.2%

## VIP: vasoactive intestinal peptide
[9]
  potency in increasing cellular cAMP, times less potent than PACAP: approximately 1000 times
Type I PACAP receptor
  affinity for Type I PACAP receptor, times less than that of PACAP: 1000 times
  binding to Type I PACAP receptor: do not bind
[10]; 0.1 nM
  effect on neuronal death in gp120-treated cultures: prevented neuronal death
[10]; murine hippocampal cultures
  effect on neuronal cell death associated with gp120 treatment: potently and completely prevented
[11]
  potency in increasing cellular cAMP, times less potent than PACAP: approximately 1000 times
CNS cultures, cAMP
  cAMP response at the concentration that increases neuronal survival: no increases in cAMP
[2]
  displacement of 125I-PACAP27 binding: did not displace

B1: Pituitary adenylate cyclase activating polypeptide, complete form with 38 amino acids (PACAP38) (peptide)
peptide: HSDGIFTDSYSRYRKQMAVKKYLAAVLGKRYKQRVKNK-NH2
notes: Synthetic peptide made by solid phase synthesis; also called PACAP[1-38]-NH2; unlabeled PACAP38
[12]
  fold higher affinity than PACAP27: ~10 fold
